Data as given in PMC6003355 (2018).

Tested on: WT T. oceani 112 ilvE RNA (RNA, riboswitch) GGAAGUGUACCUUAGGGUUCCGGCCAUAAGGCGUCAGCGACCGAGCGGUACAAUCCGGGGAAACCCGGAACACCGUGAGCAUAAAAGGCUCCAGCGGCAAGUUCCUAAAAGA
Assay: in-line probing
Details: apparent; ppGpp 200 pM to 5 µM

KD: ~ 10 nM
SMILES: Nc1nc2c(ncn2[C@@H]2O[C@H](COP(=O)(O)OP(=O)(O)O)[C@@H](OP(=O)(O)OP(=O)(O)O)[C@H]2O)c(=O)[nH]1
